Source: publication PMC12856317, “A reversible feedback mechanism regulating mitochondrial heme synthesis” (The Journal of Biological Chemistry, 2025)

Key:
[1] = biological target: T1, holoALAS2 ΔC (residues 54–547) (Homo sapiens, UniProt P22557); test: Colorimetric ALA release activity assay, hemin inhibition of holoenzyme; format: biochemical
T1 construct: a truncation without the C-terminal CXXC motif (ΔC, residues 54–547); His6-SUMO (N, cleaved yes); made in house; host or cells: Escherichia coli BL21-Codon Plus (DE3)-RIL
T1 sequence (P22557 54-547): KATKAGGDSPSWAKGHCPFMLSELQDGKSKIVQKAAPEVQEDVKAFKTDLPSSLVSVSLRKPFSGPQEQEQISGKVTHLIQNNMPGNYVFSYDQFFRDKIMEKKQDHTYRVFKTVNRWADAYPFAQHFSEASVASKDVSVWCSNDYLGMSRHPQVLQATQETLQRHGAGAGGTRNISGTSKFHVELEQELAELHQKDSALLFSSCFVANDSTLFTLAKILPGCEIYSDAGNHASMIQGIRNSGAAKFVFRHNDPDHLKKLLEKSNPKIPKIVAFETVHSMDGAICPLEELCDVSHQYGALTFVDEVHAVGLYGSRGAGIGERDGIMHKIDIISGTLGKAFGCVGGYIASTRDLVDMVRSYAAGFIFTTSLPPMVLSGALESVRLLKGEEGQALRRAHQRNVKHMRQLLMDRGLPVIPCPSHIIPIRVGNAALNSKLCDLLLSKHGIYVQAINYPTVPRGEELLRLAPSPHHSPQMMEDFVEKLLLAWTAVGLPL
Procedure: (§1) A discontinuous colorimetric activity assay adapted from Shoolingin-Jordan et al. and Bailey et al. was used to measure the enzyme activity ([48], [74]). The reaction was initiated by adding 100 nM purified enzyme to 50 mM potassium phosphate, pH 7.0, 10 mM MgCl2, 1 mM DTT, 100 mM glycine, and 300 μM succinyl-CoA (175 μl total). The reaction was incubated at 37 °C for 15 min and terminated with 100 μl of cold 10% trichloroacetic acid. The precipitated protein was removed by centrifugation for 5 min at 13,000g, and 240 μl of the supernatant was mixed with 240 μl of 1 M sodium acetate, pH 4.6. To derivatize ALA, 20 μl of acetylacetone was added to the mixture and boiled at 100 °C for 10 min. After the sample was cooled for 20 min, 100 μl aliquots were transferred into a clear 96-well plate in triplicate. An equal volume of Ehrlich’s reagent (p-Dimethylaminobenzaldehyde, DMAB) was added to each well, and the absorbance was monitored at 553 nm using a microplate reader (Thermo Fisher Scientific). The peak absorbance value was converted to molar ALA concentration using ε553 = 60,400 M^−1 cm^−1.
(§2) Inhibition of enzyme activity was determined by titrating hemin (0.1 μM–60 μM) into the substrate mixture before initiating the reaction upon enzyme addition. Hemin was dissolved in 100% dimethyl sulfoxide (DMSO) (ε403 nm = 170,000 M^−1 cm^−1) and serially diluted in 100% DMSO to prepare stock solutions for each concentration. The final DMSO concentration in the reaction mixture was 2%. All experiments were performed with a minimum of three biological replicates, each with three technical replicates. Data were fitted using nonlinear regression to generate an inhibitor dose-response curve (IC50) or an agonist dose-response curve (EC50), and statistical significance was determined using a one-way ANOVA with GraphPad Prism 10.

[2] = biological target: T2, holoALAS2 Cys-mut (C70A/C555A/C558A) (Homo sapiens, UniProt P22557, C555A/C558A/C70A); test: as above; format: biochemical; details: 0.1 μM–60 μM hemin titrated into holoenzyme
T2 construct: Site-directed mutagenesis was performed on the mature ALAS2 (residues 54–587) construct to generate truncations and cysteine mutants; His6-SUMO (N, cleaved yes); made in house; host or cells: Escherichia coli BL21-Codon Plus (DE3)-RIL
T2 sequence (P22557 54-587 C70A/C555A/C558A): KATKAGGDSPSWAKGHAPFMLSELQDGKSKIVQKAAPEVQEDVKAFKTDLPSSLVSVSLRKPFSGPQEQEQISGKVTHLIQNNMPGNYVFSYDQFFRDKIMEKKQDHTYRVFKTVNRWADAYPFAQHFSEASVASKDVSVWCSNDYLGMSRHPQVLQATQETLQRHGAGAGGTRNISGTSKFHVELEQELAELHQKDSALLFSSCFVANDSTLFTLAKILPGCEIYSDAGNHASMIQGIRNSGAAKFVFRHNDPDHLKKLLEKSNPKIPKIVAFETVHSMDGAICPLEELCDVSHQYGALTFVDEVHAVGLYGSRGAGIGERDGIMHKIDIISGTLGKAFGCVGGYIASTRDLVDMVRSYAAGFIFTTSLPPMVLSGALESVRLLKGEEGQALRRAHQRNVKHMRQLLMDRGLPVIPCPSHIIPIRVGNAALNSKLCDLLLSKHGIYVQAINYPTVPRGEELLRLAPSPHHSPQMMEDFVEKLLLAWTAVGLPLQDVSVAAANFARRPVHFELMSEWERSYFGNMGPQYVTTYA
Procedure: as §1, §2

[3] = biological target: T3, human ALAS2 Cys-mut (C70A/C555A/C558A) (Homo sapiens, UniProt P22557, C555A/C558A/C70A); test: Isothermal titration calorimetry, hemin-protein interaction; format: binding; details: ITC, 25 °C
T3 construct: Site-directed mutagenesis was performed on the mature ALAS2 (residues 54–587) construct to generate truncations and cysteine mutants; His6-SUMO (N, cleaved yes); made in house; host or cells: Escherichia coli BL21-Codon Plus (DE3)-RIL
T3 sequence (P22557 54-587 C70A/C555A/C558A): T2 sequence (P22557 54-587 C70A/C555A/C558A)
Procedure: Binding curves of the hemin-protein interaction were determined using Nano-ITC instrument (TA instruments) at 25 °C. Hemin was dissolved in 1 M NaOH and autoclaved to prepare a stock solution of 746 μM, ε385nm = 58,440 M^−1 cm^−1. The stock solution was diluted to 1.5 μM in titration buffer containing 25 mM Hepes, pH 7, 150 mM KCl, and 0.5 mM TCEP. Protein samples were dialyzed into the titration buffer and diluted to a final concentration of 40 μM. Fixed volumes of protein were injected at 200-s intervals into the cell containing hemin. An A + B hetero-association model was used to determine the thermodynamic parameters for each variant. Data were integrated and analyzed using NITPIC and SEDPHAT and visualized using GUSSI ([71], [72], [73]).

[4] = 95% confidence interval in brackets

IC50 ([1]; 0.1 μM–60 μM hemin titrated into holoenzyme): 31.3 ± 0.8 µM | residual enzyme activity, of basal activity ([1]; 100-fold excess heme): ~25% | IC50 [2]: 24.8 ± 0.5 µM | ΔG [3]: -8.48 kcal/mol | ΔS [3]: −1.18 kcal/mol K | Kd [3, 4]: 0.61 µM | ΔH [3, 4]: −361 [−561, −280] kcal/mol
Substance: ferric chloride heme [hemin]
